Assay results published in article PMC9572083, “Hybrids of 1,4-Quinone with Quinoline Derivatives: Synthesis, Biological Activity, and Molecular Docking with DT-Diaphorase (NQO1)” (Molecules, 2022).

Experiments:
[1] = target: T1, NQO1 (DT-diaphorase, EC 1.6.5.5, human recombinant) (Homo sapiens, UniProt P15559); assay: NQO1 substrate NADPH recycling enzymatic assay; format: biochemical; details: compound 10 µmol/L, pH 7.4, 25 °C, absorbance at 340 nm
T1 construct: purchased Sigma-Aldrich
Outline: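 Human recombinant NQO1 (1.4 µg/mL) in 50 mmol/L potassium phosphate, pH 7.4, was tested with compounds at 10 µmol/L. NADPH was dispensed to start the reaction, and A340 was read every 10 s for 5 min at 25 °C. Initial slopes were expressed as µmol NADPH/µmol NQO1/min against compound-free reactions.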

Colo-829 cells = assay: Cytotoxic activity, WST-1 assay, melanoma Colo-829; format: cell-based, human; details: for SI (IC50 HFF-1/IC50 cancer line) Colo-829: HFF-1 vs Colo-829; for IC50: Homo sapiens, melanoma Colo-829, 72 h, WST-1
Outline: (§1)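 Cells seeded at 5 × 10^4/well in DMEM with 10% FCS at 37 °C, 5% CO2, and exposed 72 h to compounds at 1–100 µg/mL. WST-1 formazan read at 450 nm. IC50 is the µM concentration giving 50% growth inhibition, with Neg. meaning above 30 µM; mean of ≥3 independent triplicate experiments.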

SK-OV-3 cells = assay: Cytotoxic activity, WST-1 assay, ovarian cancer SK-OV-3; format: cell-based, human; details: for SI (IC50 HFF-1/IC50 cancer line) SK-OV-3: HFF-1 vs SK-OV-3; for IC50: Homo sapiens, ovarian cancer SK-OV-3, 72 h, WST-1
Outline: as §1

MDA-MB-231 cells = assay: Cytotoxic activity, WST-1 assay, breast cancer MDA-MB-231; format: cell-based, human; details: for SI (IC50 HFF-1/IC50 cancer line) MDA-MB-231: HFF-1 vs MDA-MB-231; for IC50: Homo sapiens, breast cancer MDA-MB-231, 72 h, WST-1
Outline: as §1

T47D cells = assay: Cytotoxic activity, WST-1 assay, breast cancer T47D; format: cell-based, human; details: for SI (IC50 HFF-1/IC50 cancer line) T47D: HFF-1 vs T47D; for IC50: Homo sapiens, breast cancer T47D, 72 h, WST-1
Outline: as §1

MCF-7 cells = assay: Cytotoxic activity, WST-1 assay, breast cancer MCF-7; format: cell-based, human; details: for SI (IC50 HFF-1/IC50 cancer line) MCF-7: HFF-1 vs MCF-7; for IC50: Homo sapiens, MCF7, breast cancer MCF-7, 72 h, WST-1
Outline: as §1

A549 cells = assay: Cytotoxic activity, WST-1 assay, lung cancer A549; format: cell-based, human; details: for SI (IC50 HFF-1/IC50 cancer line) A549: HFF-1 vs A549; for IC50: Homo sapiens, lung cancer A549, 72 h, WST-1
Outline: as §1

HFF-1 cells = assay: Cytotoxic activity, WST-1 assay, normal fibroblasts HFF-1; format: cell-based; details: Homo sapiens, normal fibroblasts HFF-1, 72 h
Outline: as §1

H3 histone gene = assay: Transcriptional activity of H3 histone gene in A549 cells (RT-QPCR); format: cell-based, human; details: 24 h, concentration equal to half of IC50
Description: (§2) The mechanism of anticancer activity was determined by detection of transcriptional activity of the genes encoding a proliferation marker (H3 histone), cell cycle regulators (p53 and p21), and the mitochondrial apoptosis pathway (BCL-2 and BAX) (Figure 3a–d). The derivatives 11b, 12b, 13b, and 14b were selected for this study.
(§3) Transcriptional activity of genes (TP53, CDKN1A, BAX, and BCL-2) was rated by real-time RT-QPCR using Opticon™ DNA Engine system (MJ Research, Watertown, NY, USA) and QuantTect® SYBR® Green RT-PCR Kit (Qiagen, Hilden, Germany). Cultured cells were incubated with tested compounds for 24 h. RNA was extracted using Quick-RNA™ MiniPrep kit columns (Zymo Research, Irvine, CA, USA). The extracted RNA was assessed qualitatively and quantitatively. The amount and purity of the total RNA in extracts were determined spectrophotometrically (HP8452A apparatus, Hewlett Packard, Waldbronn, Germany).

TP53 = assay: Transcriptional activity of TP53 gene in A549 cells (RT-QPCR); format: cell-based, human; details: 24 h, concentration equal to half of IC50
Description: as §2, §3

CDKN1A = assay: Transcriptional activity of CDKN1A gene in A549 cells (RT-QPCR); format: cell-based, human; details: 24 h, concentration equal to half of IC50
Description: as §2, §3

T1 sequence (P15559 whole entry): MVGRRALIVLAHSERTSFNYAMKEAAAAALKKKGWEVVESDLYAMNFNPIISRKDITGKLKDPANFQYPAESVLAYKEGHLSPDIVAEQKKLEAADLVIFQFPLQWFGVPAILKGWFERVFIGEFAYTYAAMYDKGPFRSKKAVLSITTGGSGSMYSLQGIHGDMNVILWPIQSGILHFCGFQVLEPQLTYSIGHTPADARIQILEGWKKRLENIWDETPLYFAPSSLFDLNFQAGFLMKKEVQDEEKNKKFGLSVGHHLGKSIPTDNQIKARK

Row | SMILES | NQO1 activity (enzymatic conversion rate) [1] [µmol NADPH/µmol NQO1/min] | SI (IC50 HFF-1/IC50 cancer line) Colo-829 (Colo-829 cells) | IC50 (Colo-829 cells) [µM] | SI (IC50 HFF-1/IC50 cancer line) SK-OV-3 (SK-OV-3 cells) | IC50 (SK-OV-3 cells) [µM] | SI (IC50 HFF-1/IC50 cancer line) MDA-MB-231 (MDA-MB-231 cells) | IC50 (MDA-MB-231 cells) [µM] | SI (IC50 HFF-1/IC50 cancer line) T47D (T47D cells) | IC50 (T47D cells) [µM] | SI (IC50 HFF-1/IC50 cancer line) MCF-7 (MCF-7 cells) | IC50 (MCF-7 cells) [µM] | SI (IC50 HFF-1/IC50 cancer line) A549 (A549 cells) | IC50 (A549 cells) [µM] | IC50 (HFF-1 cells) [µM] | Number of mRNA copies of the histone H3 gene (H3 histone gene) | TP53 gene expression (TP53) | CDKN1A expression (copies of mRNA) (CDKN1A) | melting point [°C]
1 | Cc1ccc2cccc(OC3=C(Cl)C(=O)c4ccccc4C3=O)c2n1 [Compound 14b, 2-chloro-3-[(2-methylquinolin-8-yl)oxy]naphthalene-1,4-dione] | 1260 ± 15 | 0.74 | 15 ± 1.03 | 0.66 | 16.8 ± 0.59 | 0.58 | 19.2 ± 0.62 | 0.50 | 22.2 ± 1.03 | 0.68 | 16.3 ± 1.08 | 5.30 | 2.1 ± 0.29 | 11.1 ± 1.62 | reduce the amount of mRNA copies by half | slight increase | slight effect | 100 to 102
2 | Cc1ccc2cccc(OC3=C(Cl)C(=O)c4ccncc4C3=O)c2n1 [Compound 13b, 6-chloro-7-[(2-methylquinolin-8-yl)oxy]isoquinoline-5,8-dione] | 1143 ± 36 | 66.77 | 0.39 ± 0.11 | 53.14 | 0.49 ± 0.05 | 236.73 | 0.11 ± 0.01 | 20.19 | 1.29 ± 0.03 | 42.69 | 0.61 ± 0.09 | 45.68 | 0.57 ± 0.02 | 26 ± 1.6 | reduce the amount of mRNA copies by half | significant increase | highest increase | 110 to 112
